Data as given in US11351268B2, “FGF21 C-terminal peptide optimization” (INDIANA UNIVERSITY RESEARCH AND TECHNOLOGY CORPORATION, priority 2016, dated 2022).
Non-standard residues stand in square brackets, D forms with d. Residues, ends and D or L forms follow the SMILES beside them. No end group written: not given here.

Biological target: T1, Klotho β (KLB) (Homo sapiens, UniProt Q86Z14)
T1 construct: expressed in transfected cells; host or cells: HEK 293T (ATCC), pooled Zeocin-selected cells stably expressing hKLB from pcDNA3.1(+)
T1 sequence (Q86Z14 1-1044): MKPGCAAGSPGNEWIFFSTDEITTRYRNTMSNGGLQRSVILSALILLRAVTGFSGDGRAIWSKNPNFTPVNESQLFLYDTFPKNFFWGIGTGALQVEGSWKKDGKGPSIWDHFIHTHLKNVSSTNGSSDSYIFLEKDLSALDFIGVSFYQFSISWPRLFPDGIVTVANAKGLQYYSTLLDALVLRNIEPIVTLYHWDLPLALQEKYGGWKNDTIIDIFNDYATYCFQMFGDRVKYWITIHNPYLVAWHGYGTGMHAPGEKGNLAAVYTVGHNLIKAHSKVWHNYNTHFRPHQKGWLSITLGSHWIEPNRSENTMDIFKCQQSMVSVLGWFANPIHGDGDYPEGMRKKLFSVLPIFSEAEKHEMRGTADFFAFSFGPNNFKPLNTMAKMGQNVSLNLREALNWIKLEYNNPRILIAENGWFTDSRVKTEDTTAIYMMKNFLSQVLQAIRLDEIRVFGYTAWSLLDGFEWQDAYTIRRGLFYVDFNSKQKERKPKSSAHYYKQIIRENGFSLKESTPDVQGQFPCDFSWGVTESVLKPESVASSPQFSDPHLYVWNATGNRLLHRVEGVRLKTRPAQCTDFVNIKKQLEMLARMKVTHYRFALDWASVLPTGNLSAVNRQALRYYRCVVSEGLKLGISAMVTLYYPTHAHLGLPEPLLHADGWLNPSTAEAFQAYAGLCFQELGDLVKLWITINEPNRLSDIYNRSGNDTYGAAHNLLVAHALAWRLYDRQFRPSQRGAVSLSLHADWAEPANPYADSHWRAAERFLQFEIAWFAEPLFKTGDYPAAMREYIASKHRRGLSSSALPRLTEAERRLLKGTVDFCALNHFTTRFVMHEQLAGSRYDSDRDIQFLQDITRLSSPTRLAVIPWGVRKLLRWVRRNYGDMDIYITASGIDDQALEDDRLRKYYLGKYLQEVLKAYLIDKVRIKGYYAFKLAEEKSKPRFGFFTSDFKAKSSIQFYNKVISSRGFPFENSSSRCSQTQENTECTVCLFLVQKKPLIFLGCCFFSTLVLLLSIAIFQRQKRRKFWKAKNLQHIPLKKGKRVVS
Assay: cell-based
Assay type: cell-based
Conditions: for Emax: Table 1, native sequence = 100% response, read-out: % max activity; for antagonism of FGF21 activity (in words): 10 nM FGF21 stimulation, 293 HEK hKLB cells
Procedure: Cells were cultured in 10% Fetal Bovine Serum containing DMEM High glucose GLUTAMAX® at 37 C, 95% humidity, 5% CO2. For generating the cell line with stable expression, human KLB gene was synthesized by Genscript and subcloned into pcDNA3.1(+) with ZEOCIN® resistance vector (INVITROGEN®) by NheI and NotI restriction enzyme sites. HEK 293T cells were obtained from ATCC and were transiently transfected at 80% confluency using Lipofectamine 3000 (Invitrogen). Selection for KLB-expressing cells was initiated 48 hours post-transfection in the growth media containing 100 μg/ml of ZEOCIN® (Gibco) and continued for 4 weeks with fresh media added every third day. Human KLB expression in pooled cells was confirmed by Western blot and a functional FGF21 MAPK phosphorylation assay.
293 HEK cells expressing hKLB were plated to 90% confluency in 96 well plates coated with poly-D-Lysine. Cells were serum starved for three hours in 0.1% BSA containing media prior to stimulation with protein and/or an antagonist peptide for ten minutes at 37° C. The cell lysate was used for the detection of phospho-Erk1/2 levels by AlphaSureFire kit using the prescribed protocol. The degree of biochemical activation was recorded and analyzed using Origin software by logistic curve fitting. Tests at each concentration were done in triplicates, and the standard deviation is as shown in the graphs. The calculation of maximal activities was done keeping the FGF21 157-181 or FGF19 169-194 peptide activity as standard. The difference between the Erk1/2 phosphorylation signal for the highest (10 μM) and the lowest (0 μM) tested dose for native peptide was considered as 100% and accordingly all the other values were assigned.

[1] = FIG. 8A, substitutions at terminal position of FGF19 169-194 peptide
[2] = Table 2(A), FGF21 157-181 alanine mutants, ≥95% maximal activity
[3] = FIG. 8B, FGF21 and FGF19 C-terminal peptides
[4] = Table 1, alanine scan of FGF21 25mer, antagonism of native FGF21 response
[5] = Table 5, FGF19/FGF21 chimeric peptides
[6] = Table 6, derivatives of SEQ ID NO: 180

PLETDSMDPFGLVTGLEAVRSPSFEE-NH2 (C-terminus assumed) [Peptide K194E]
IC50 [1]: 87.9 nM

PPDVGSSDPLSMVGPSQGRSASYAS-NH2 (C-terminus assumed) [Peptide A21, PPDVGSSDPLSMVGPSQGRSASYAS]
Emax: 70.5%

PPDVGSSDPLSMVGPSQGRSPSYAA-NH2 (C-terminus assumed) [Peptide A25, PPDVGSSDPLSMVGPSQGRSPSYAA]
% max activity: 99.0%

PLETDSMDPFGLVTGLEAVRSPSFES-NH2 (C-terminus assumed) [Peptide K194S]
IC50 [1]: 22.3 nM

FGF21 (amino acids 153-181): C-terminal peptide of FGF21, amino acids 153-181 (LAPQPPDVGSSDPLSMVGPSQGRSPSYAS) [reference compound]
antagonism of FGF21 activity (in words): exhibit antagonism to FGF21 activity

PPDVGSSDPLSMVGASQGRSPSYAS-NH2 (C-terminus assumed) [Peptide A15, PPDVGSSDPLSMVGASQGRSPSYAS]
Emax: 93.9%
IC50 [2]: 120 nM

PLETDSMDPFGLVTGLEAVRSPSFEK-NH2 (C-terminus assumed) [FGF19 WT, reference compound]
IC50 [3]: 50 nM
IC50 (Table 2(A), FGF19 169-194 alanine mutants, ≥95% maximal activity): 270 ± 90 nM

PPDVGSSDPLSMAGPSQGRSPSYAS-NH2 (C-terminus assumed) [Peptide A13, PPDVGSSDPLSMAGPSQGRSPSYAS]
Emax: 87.9%

PPDVGSSDPLSMVGPSQARSPSYAS-NH2 (C-terminus assumed) [Peptide A18, PPDVGSSDPLSMVGPSQARSPSYAS]
% max activity: 102.9%
IC50 [4]: 139 nM
IC50 [2]: 150 nM

PPDVGSSDPLSMVGPSQGRSPAYAS-NH2 (C-terminus assumed) [Peptide A22, PPDVGSSDPLSMVGPSQGRSPAYAS]
Emax: 78.5%

PLETDSSDPLSMVGPSQGRSPSFEA-NH2 (C-terminus assumed) [Peptide 0432]
IC50 [5]: 120 ± 6.3 nM

PPDVGSSDPLSMVGPSAGRSPSYAS-NH2 (C-terminus assumed) [Peptide A17, PPDVGSSDPLSMVGPSAGRSPSYAS]
% max activity: 99.7%
IC50 [4]: 139 nM
IC50 [2]: 130 nM

APDVGSSDPLSMVGPSQGRSPSYAS-NH2 (C-terminus assumed) [Peptide A1, APDVGSSDPLSMVGPSQGRSPSYAS]
Emax: 100%

PPDVGSSDPLSMVGPSQGASPSYAS-NH2 (C-terminus assumed) [Peptide A19, PPDVGSSDPLSMVGPSQGASPSYAS]
IC50 [4]: 102 nM
Emax: 100%

PPDVGSMDPFGLVGPSQGRSPSFEA-NH2 (C-terminus assumed) [Peptide 0431]
IC50 [5]: 4.1 ± 0.1 nM
IC50 [6]: 7.1 ± 3 nM

PPDVGSSDPLSMVGPAQGRSPSYAS-NH2 (C-terminus assumed) [Peptide A16, PPDVGSSDPLSMVGPAQGRSPSYAS]
IC50 [4]: 120 nM
Emax: 101%

CSCC[C@H](NC(=O)[C@H](CO)NC(=O)[C@H](CC(C)C)NC(=O)[C@@H]1CCCN1C(=O)[C@H](CC(=O)O)NC(=O)[C@H](CO)NC(=O)[C@H](CO)NC(=O)CNC(=O)[C@@H](NC(=O)[C@H](CC(=O)O)NC(=O)[C@@H]1CCCN1C(=O)[C@@H]1CCCN1)C(C)C)C(=O)N[C@H](C(=O)NCC(=O)N1CCC[C@H]1C(=O)N[C@@H](CO)C(=O)N[C@@H](CCC(N)=O)C(=O)NCC(=O)N[C@@H](CCCNC(=N)N)C(=O)N[C@@H](CO)C(=O)N1CCC[C@@H]1C(=O)N[C@@H](CO)C(=O)N[C@@H](Cc1ccc(O)cc1)C(=O)N[C@@H](C)C(=O)N[C@@H](CO)C(N)=O)C(C)C [d21, PPDVG SSDPL SMVGP SQGRS pSYAS] (H-PPDVGSSDPLSMVGPSQGRS[dP]SYAS-NH2; N-terminus and C-terminus assumed)
% Activity vs C25 (Table 3, D-amino acid scan, C25 = 100): 3.80 ± 0.87%

PPDVGSMDPFGLVTGLEAVRSPSYAA-NH2 (C-terminus assumed) [Peptide 0433]
IC50 [5]: 10.7 ± 0.7 nM

PPDVGSSDPASMVGPSQGRSPSYAS-NH2 (C-terminus assumed) [Peptide A10, PPDVGSSDPASMVGPSQGRSPSYAS]
Emax: 76%

PPDVGSSDPLSMVAPSQGRSPSYAS-NH2 (C-terminus assumed) [Peptide A14, PPDVGSSDPLSMVAPSQGRSPSYAS]
% max activity: 97.7%
IC50 [2]: 130 nM

PADVGSSDPLSMVGPSQGRSPSYAS-NH2 (C-terminus assumed) [Peptide A2, PADVGSSDPLSMVGPSQGRSPSYAS]
Emax: 98.5%

PPDVASSDPLSMVGPSQGRSPSYAS-NH2 (C-terminus assumed) [Peptide A5, PPDVASSDPLSMVGPSQGRSPSYAS]
% max activity: 102.5%

PPDVGSSDPFGLVGPSQGRSPSFEA-NH2 (C-terminus assumed) [Peptide 0486]
IC50 [6]: 4.7 ± 1.6 nM

PLETDSSDPLSMVTGLEAVRSPSYAA-NH2 (C-terminus assumed) [Peptide 0434]
IC50 [5]: 264 ± 78.8 nM

FGF19 (amino acids 165-194): C-terminal peptide of FGF19, amino acids 165-194 (FLPMLPMVPEEPEDLRGHLESDMFSSPLET) [reference compound]
antagonism of FGF21 activity (in words): exhibit antagonism to FGF21 activity

PPAVGSSDPLSMVGPSQGRSPSYAS-NH2 (C-terminus assumed) [Peptide A3, PPAVGSSDPLSMVGPSQGRSPSYAS]
Emax: 87.8%

PLETDSMDPFGLVTGLEAVRSPSFEL-NH2 (C-terminus assumed) [Peptide K194L]
IC50 [1]: 17.3 nM

PPDVGSSDPLAMVGPSQGRSPSYAS-NH2 (C-terminus assumed) [Peptide A11, PPDVGSSDPLAMVGPSQGRSPSYAS]
IC50 [4]: 102 nM
Emax: 98%
IC50 [2]: 150 nM

FGF21 160-181: C-terminal fragment of FGF21 described as 24-amino acid (VGSSDPLSMVGPSQGRSPSYAS; UniProt Q9NSA1 188-209, looked up, fragment) [reference compound]
antagonism of FGF21 activity (in words): dramatically improved its antagonistic potential

PPDAGSSDPLSMVGPSQGRSPSYAS-NH2 (C-terminus assumed) [Peptide A4, PPDAGSSDPLSMVGPSQGRSPSYAS]
Emax: 63.6%

PLETDSMDPFGLVTGLEAVRSPSFEA-NH2 (C-terminus assumed) [FGF19 A25]
IC50 [1]: 10.5 nM
IC50 [3]: 0.5 nM
IC50 [5]: 19.1 ± 1.5 nM

PPDVGASDPLSMVGPSQGRSPSYAS-NH2 (C-terminus assumed) [Peptide A6, PPDVGASDPLSMVGPSQGRSPSYAS]
Emax: 89.2%

PPDVLSMDPFGLVGPSQGRSPSFEA-NH2 (C-terminus assumed) [Peptide 0481]
IC50 [6]: 2.6 ± 0.8 nM

FGF21 162-181: C-terminal fragment of FGF21, residues 162-181 (SSDPLSMVGPSQGRSPSYAS) [reference compound]
antagonism of FGF21 activity (in words): non-functional

PPDVGSSDPLSMVGPSQGRSPSAAS-NH2 (C-terminus assumed) [Peptide A23, PPDVGSSDPLSMVGPSQGRSPSAAS]
% max activity: 73.6%
